One experiment has as its target T1, NA transporter (Rattus norvegicus, UniProt Q9WTR4).
T1 construct: synaptosomes from rat brain regions were freshly isolated; from tissue; host or cells: P2 synaptosome fraction from hypothalamus of male rat brain
Kind of experiment: Noradrenalin uptake inhibition (NA-uptake) in synaptosomes. Type of experiment: biochemical. To be noted: rat hypothalamus synaptosomes. The source says: Tests on Noradrenalin Uptake Inhibition (NA-Uptake Inhibition)
In order to be able to carry out these in vitro studies, synaptosomes from rat brain regions were freshly isolated.

Another experiment has as its target T2, 5HT-uptake (Rattus norvegicus, UniProt P31652).
T2 construct: synaptosomes from rat brain regions were freshly isolated; from tissue; host or cells: P2 synaptosome fraction from rat brain regions
Kind of experiment: Serotonin uptake inhibition (5HT uptake) in synaptosomes. Type of experiment: biochemical. The note with it: rat brain synaptosomes.

T2 sequence (P31652 whole entry): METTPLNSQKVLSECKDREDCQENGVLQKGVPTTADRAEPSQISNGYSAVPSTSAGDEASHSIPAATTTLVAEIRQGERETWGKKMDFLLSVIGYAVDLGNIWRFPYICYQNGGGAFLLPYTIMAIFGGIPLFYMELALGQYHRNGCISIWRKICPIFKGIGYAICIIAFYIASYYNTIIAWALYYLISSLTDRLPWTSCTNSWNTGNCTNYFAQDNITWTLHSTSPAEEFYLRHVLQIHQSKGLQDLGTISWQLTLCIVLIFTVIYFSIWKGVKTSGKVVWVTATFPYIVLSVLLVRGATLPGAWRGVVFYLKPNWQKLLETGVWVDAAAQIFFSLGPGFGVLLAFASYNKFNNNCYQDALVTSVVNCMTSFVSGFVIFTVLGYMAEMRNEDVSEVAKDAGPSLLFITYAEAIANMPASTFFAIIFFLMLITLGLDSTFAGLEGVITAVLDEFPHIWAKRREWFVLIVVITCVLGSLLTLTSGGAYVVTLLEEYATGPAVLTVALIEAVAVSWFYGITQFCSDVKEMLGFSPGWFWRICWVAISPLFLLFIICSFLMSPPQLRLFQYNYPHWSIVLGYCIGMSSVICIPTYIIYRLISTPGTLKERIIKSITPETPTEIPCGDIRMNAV
T1 sequence (Q9WTR4 1-597): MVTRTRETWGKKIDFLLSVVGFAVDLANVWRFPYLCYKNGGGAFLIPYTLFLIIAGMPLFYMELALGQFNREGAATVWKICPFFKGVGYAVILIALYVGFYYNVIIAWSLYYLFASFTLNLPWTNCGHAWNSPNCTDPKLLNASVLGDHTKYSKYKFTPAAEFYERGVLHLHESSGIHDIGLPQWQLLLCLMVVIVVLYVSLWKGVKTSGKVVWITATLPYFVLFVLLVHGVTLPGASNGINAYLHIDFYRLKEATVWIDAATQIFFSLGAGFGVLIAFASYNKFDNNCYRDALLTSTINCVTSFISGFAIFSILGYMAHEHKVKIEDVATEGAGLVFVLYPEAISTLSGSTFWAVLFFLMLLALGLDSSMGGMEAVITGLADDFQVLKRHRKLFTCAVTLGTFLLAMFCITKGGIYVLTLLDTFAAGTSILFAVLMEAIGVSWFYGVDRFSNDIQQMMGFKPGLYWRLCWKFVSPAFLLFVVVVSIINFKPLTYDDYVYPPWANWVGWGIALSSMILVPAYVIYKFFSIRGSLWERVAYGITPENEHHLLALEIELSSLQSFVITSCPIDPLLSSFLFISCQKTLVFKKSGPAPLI
Text for 5HT-uptake: Tests on Serotonin Uptake (5HT Uptake Inhibition)

With `O=C(NCc1cccs1)C1=NOC2(CCN(S(=O)(=O)c3ccccc3Cl)CC2)C1` [Example 156, 8-(2-chloro-benzenesulphonyl)-1-oxa-2,8-diaza-spiro[4,5]dec-2-ene-3-carboxylic acid (thiophen-2-ylmethyl)-amide], the inhibition at 10 µM against NA transporter was 60%; against 5HT-uptake, 41%.

As to `Cc1ccc(S(=O)(=O)N2CCC3(CC2)CC(C(=O)NC2CCCC2OCc2ccccc2)=NO3)cc1` (stereo not shown) [Example 73, 8-(toluene-4-sulphonyl)-1-oxa-2,8-diaza-spiro[4,5]dec-2-ene-3-carboxylic acid (2-benzyloxy-cyclopentyl)-amide], the “NA-uptake, 10 μM, % inhibition” value on NA transporter (10 µM) is 93%. At 5HT-uptake (10 µM), the “5HT-uptake, 10 μM, % inhibition” value amounted to 46%.

`COc1ccc(S(=O)(=O)N2CCC3(CC2)CC(C(=O)NCCc2ccccc2F)=NO3)cc1` [Example 104]: the “NA-uptake, 10 μM, % inhibition” value at NA transporter turned out to be 49%. In addition, the “5HT-uptake, 10 μM, % inhibition” value at 5HT-uptake is on record as 41%.

For `CC1CCCCN1CCCNC(=O)C1=NOC2(CCN(S(=O)(=O)c3cc(Cl)ccc3Cl)CC2)C1` (stereo not shown) [Example 15, 8-(2,5-dichloro-benzenesulphonyl)-1-oxa-2,8-diaza-spiro[4,5]dec-2-ene-3-carboxylic acid[3-(2-methyl-piperidin-1-yl)-propyl]-amide], on NA transporter, the “NA-uptake, 10 μM, % inhibition” value is on record as 41%. Besides, on 5HT-uptake, the “5HT-uptake, 10 μM, % inhibition” value was found to be 55%.

Turning to `Cc1ccc(F)cc1S(=O)(=O)N1CCC2(CC1)CC(C(=O)NCc1cccs1)=NO2` [Example 150, 8-(5-fluoro-2-methyl-benzenesulphonyl)-1-oxa-2,8-diaza-spiro[4,5]dec-2-ene-3-carboxylic acid (thiophen-2-ylmethyl)-amide], the inhibition at 10 µM at NA transporter was found to be 48%; against 5HT-uptake it was 70%.

For `O=C(C1=NOC2(CCN(S(=O)(=O)Cc3ccccc3)CC2)C1)N1CCN(CCCc2ccccc2)CC1` [Example 69], the “NA-uptake, 10 μM, % inhibition” value at NA transporter is listed as 56%. Further, the “5HT-uptake, 10 μM, % inhibition” value on 5HT-uptake is given as 63%.

Turning to `CC(NC(=O)C1=NOC2(CCN(S(=O)(=O)c3cc(Cl)ccc3Cl)CC2)C1)C(=O)Nc1ccc2ccccc2c1` (stereo not shown) [Example 44, 8-(2,5-dichloro-benzenesulphonyl)-1-oxa-2,8-diaza-spiro[4,5]dec-2-ene-3-carboxylic acid [1-(naphthalen-2-ylcarbamoyl)-ethyl]amide], the values for the inhibition at 10 µM at NA transporter and on 5HT-uptake were 48% and 80%, respectively.

Turning to `CC(NC(=O)C1=NOC2(CCN(S(=O)(=O)c3cccs3)CC2)C1)c1cccc2c1OCCO2` (stereo not shown) [Example 84, 8-(thiophene-2-sulphonyl)-1-oxa-2,8-diaza-spiro[4,5]dec-2-ene-3-carboxylic acid [1-(2,3-dihydro-benzo[1,4]dioxin-5-yl)-ethyl]-amide], the results for the inhibition at 10 µM on NA transporter and on 5HT-uptake were 67% and 68%, respectively.

As to `CN(C)S(=O)(=O)N1CCC2(CC1)CC(C(=O)N1CCN(C3CCCCCC3)CC1)=NO2` [Example 144, 3-(4-cycloheptyl-piperazine-1-carbonyl)-1-oxa-2,8-diaza-spiro[4,5]dec-2-ene-8 sulphonic acid dimethylamide], the inhibition at 10 µM came out at 56% on NA transporter and 41% on 5HT-uptake.

Take `O=C(C1=NOC2(CCN(S(=O)(=O)c3ccc(Cl)s3)CC2)C1)N1CCN(c2ccccc2)CC1` [Example 4, [8-(5-chloro-thiophene-2-sulphonyl)-1-oxa-2,8-diaza-spiro[4,5]dec-2-en-3-yl]-(4-phenyl-piperazin-1-yl)-methanone]: the inhibition at 10 µM came out at 45% on NA transporter and 54% on 5HT-uptake.

In the case of `Cc1ccc(S(=O)(=O)N2CCC3(CC2)CC(C(=O)NC2CCCC2OCc2ccccc2)=NO3)cc1` (stereo not shown) [Example 67, 8-(toluene-4-sulphonyl)-1-oxa-2,8-diaza-spiro[4,5]dec-2-ene-3-carboxylic acid (2-benzyloxy-cyclopentyl)-amide], the “NA-uptake, 10 μM, % inhibition” value on NA transporter (10 µM) is given as 59%. Moreover, the inhibition at 10 µM at 5HT-uptake came out at 58%.

With `O=C(NC1CCN(Cc2ccc3ccccc3c2)C1)C1=NOC2(CCN(S(=O)(=O)c3ccc(Cl)s3)CC2)C1` (stereo not shown) [Example 50, 8-(5-chloro-thiophene-2-sulphonyl)-1-oxa-2,8-diaza-spiro[4,5]dec-2-ene-3 carboxylic acid (1-naphthalen-2-ylmethyl-pyrrolidin-3-yl)-amide], the inhibition at 10 µM at NA transporter amounted to 50%; against 5HT-uptake, 57%.

Take `O=C(C1=NOC2(CCN(S(=O)(=O)c3cccs3)CC2)C1)N1CCN(C2CCCCCC2)CC1` [Example 3, (4-cycloheptyl-piperazin-l-yl)-[8-(thiophene-2-sulphonyl)-1-oxa-2,8-diaza-spiro [4,5]dec-2-en-3-yl]-methanone]: on NA transporter, the “NA-uptake, 10 μM, % inhibition” value was 59%. For the same molecule, the “5HT-uptake, 10 μM, % inhibition” value at 5HT-uptake stood at 51%.

Consider `COc1ccc(S(=O)(=O)N2CCC3(CC2)CC(C(=O)NC(C)Cc2ccc(Cl)cc2)=NO3)cc1` (stereo not shown) [Example 164, 8-(4-methoxy-benzenesulphonyl)-1-oxa-2,8-diaza-spiro[4,5]dec-2-ene-3-carboxylic acid [2-(4-chloro-phenyl)-1-methyl-ethyl]-amide], for which the inhibition at 10 µM stood at 80% against NA transporter and 54% on 5HT-uptake.

In the case of `CN(C)S(=O)(=O)N1CCC2(CC1)CC(C(=O)N1CCN(Cc3ccc4ccccc4c3)CC1)=NO2` [Example 65, 3-(4-naphthalen-2-ylmethyl-piperazine-1-carbonyl)-1-oxa-2,8-diaza-spiro[4,5]dec-2-ene-8-sulphonic acid dimethylamide], the inhibition at 10 µM against NA transporter was found to be 63%; at 5HT-uptake it was 81%.

As for `Cc1cc(C(=O)N2CCC3(CC2)CC(C(=O)NCc2ccncc2)=NO3)ccc1Br` [Example 130, 8-(4-bromo-3-methyl-benzoyl)-1-oxa-2,8-diaza-spiro[4,5]dec-2-ene-3-carboxylic acid (pyridin-4-ylmethyl)-amide], the inhibition at 10 µM is 61% against NA transporter and 64% against 5HT-uptake.

Consider `Cc1ccc(S(=O)(=O)N2CCC3(CC2)CC(C(=O)NCc2cc(Cl)cc(Cl)c2)=NO3)cc1` [Example 63, 8-(toluene-4-sulphonyl)-1-oxa-2,8-diaza-spiro[4,5]dec-2-ene-3-carboxylic acid 3,5-dichlorobenzylamide], for which, at 5HT-uptake, the inhibition at 10 µM was 55%.

In the case of `O=C(NCc1cccc(F)c1)C1=NOC2(CCN(S(=O)(=O)c3cccs3)CC2)C1` [Example 24, 8-(thiophene-2-sulphonyl)-1-oxa-2,8-diaza-spiro[4,5]dec-2-ene-3-carboxylic acid 3-fluorobenzylamide], the inhibition at 10 µM against 5HT-uptake turned out to be 40%.

`Cc1ccc(S(=O)(=O)N2CCC3(CC2)CC(C(=O)NCCN(C)C)=NO3)cc1` [Example 57, 8-(toluene-4-sulphonyl)-1-oxa-2,8-diaza-spiro[4,5]dec-2-ene-3-carboxylic acid (2-dimethylamino-ethyl)-amide] returned an inhibition at 10 µM at 5HT-uptake of 41%.

With `O=C(NCCc1ccc(Cl)cc1)C1=NOC2(CCN(S(=O)(=O)c3cccs3)CC2)C1` [Example 60, 8-(thiophene-2-sulphonyl)-1-oxa-2,8-diaza-spiro[4,5]dec-2-ene-3-carboxylic acid [2-(4-chlorophenyl)-ethyl]-amide], at 10 µM the inhibition at 5HT-uptake was 65%.

At 5HT-uptake, `COCCOCC(=O)N1CCC2(CC1)CC(C(=O)NCc1ccccc1)=NO2` [Example 87, 8-[2-(2-methoxy-ethoxy)-acetyl]-1-oxa-2,8-diaza-spiro[4,5]dec-2-ene-3-carboxylic acid benzylamide] yielded an inhibition at 10 µM of 40%.

At 5HT-uptake, `O=C(NCc1cc(F)cc(C(F)(F)F)c1)C1=NOC2(CCN(S(=O)(=O)c3cc(Cl)ccc3Cl)CC2)C1` [Example 39, 8-(2,5-dichloro-benzenesulphonyl)-1-oxa-2,8-diaza-spiro[4,5]dec-2-ene-3-carboxylic acid 3-fluoro-5-trifluoromethyl-benzylamide] gave an inhibition at 10 µM of 65%.

`COc1ccc(C(=O)N2CCC3(CC2)CC(C(=O)NCc2ccc(C)o2)=NO3)cc1` [Example 59]: the “5HT-uptake, 10 μM, % inhibition” value at 5HT-uptake was 45%.

`COc1ccc(CNC(=O)C2=NOC3(CCN(S(=O)(=O)c4cc(Cl)ccc4Cl)CC3)C2)cc1OC` [Example 68, 8-(2,5-dichloro-benzenesulphonyl)-1-oxa-2,8-diaza-spiro[4,5]dec-2-ene-3-carboxylic acid 3,4-dimethoxy-benzylamide] displayed an inhibition at 10 µM against 5HT-uptake of 52%.

Consider `O=C(C1=NOC2(CCN(S(=O)(=O)c3cc(Cl)ccc3Cl)CC2)C1)N1CCN(c2ncnc3sccc23)CC1` [Example 29], for which the “5HT-uptake, 10 μM, % inhibition” value on 5HT-uptake is 42%.

Molecule `O=C(NCC1CC1)C1=NOC2(CCN(C(=O)c3cccc(Cl)c3Cl)CC2)C1` [Example 157, 8-(2,3-dichloro-benzoyl)-1-oxa-2,8-diaza-spiro[4,5]dec-2-ene-3-carboxylic acid cyclopropylmethyl-amide] registered an inhibition at 10 µM on 5HT-uptake of 52%.

`O=C(Cc1ccc(F)c(F)c1)N1CCN(C(=O)C2=NOC3(CCN(S(=O)(=O)c4cccc(C(F)(F)F)c4)CC3)C2)CC1` [Example 93]: the “5HT-uptake, 10 μM, % inhibition” value on 5HT-uptake turned out to be 42%.

Consider `COC(=O)C(Cc1c[nH]c2ccccc12)NC(=O)C1=NOC2(CCN(S(=O)(=O)c3ccc(OC(F)(F)F)cc3)CC2)C1` (stereo not shown) [Example 1, 3-(1H-indo1-3-yl)-2-{[8-(4-trifluoromethoxy-benzene-sulphonyl)-1-oxa-2,8-diaza-spiro[4,5]dec-2-ene-3-carbonyl]-amino}-propionic acid methyl ester], for which the “5HT-uptake, 10 μM, % inhibition” value at 5HT-uptake is given as 47%.

`O=C(NCC1CC1)C1=NOC2(CCN(S(=O)(=O)c3cccc(C(F)(F)F)c3)CC2)C1` [Example 94, 8-(3-trifluoromethyl-benzenesulphonyl)-1-oxa-2,8-diaza-spiro[4,5]dec-2-ene-3 carboxylic acid cyclopropylmethyl-amide] returned an inhibition at 10 µM at 5HT-uptake of 57%.

On to `Cc1ccc([N+](=O)[O-])cc1S(=O)(=O)N1CCC2(CC1)CC(C(=O)NCCN(C)C)=NO2` [Example 19, 8-(2-methyl-5-nitro-benzenesulphonyl)-1-oxa-2,8-diaza-spiro[4,5]dec-2-ene-3 carboxylic acid (2-dimethylamino-ethyl)-amide], for which the inhibition at 10 µM at 5HT-uptake worked out at 80%.

By inhibition is commonly meant the percentage by which the read-out fell short of the control.

The record behind these values is patent US8557796B2, “Substituted 1-oxa-2,8-diaza-spiro [4,5] dec-2-ene derivatives and related treatment methods” (Gruenenthal GmbH, priority 2001, dated 2013).
